According to patent US4402962A, “Analgesic mixture of nalbuphine and 4,5-bis(4-methoxyphenyl)-2-(trifluoromethylsulfonyl)-1H-imidazole” (E. I. Du Pont de Nemours and Company, priority 1982, dated 1983):

Experiment: phenyl-p-benzoquinone induced writhing test in mice (mouse antiphenylquinone writhing test), oral
Type: in vivo, mouse (male CF1)
Conditions: for % MICE BLOCKED: oral
Description: The phenyl-p-benzoquinone induced writhing test in mice [H. Blumberg et al., Proc. Soc. […] The method simply consists of reading the % ED50 DOSE for each dose ratio on the best fit regression analysis curve from the mouse isobologram, multiplying each component by its effective species dose, and then forming the ratio of the amount of nalbuphine to 4,5-bis(4-methoxyphenyl)-2-(trifluoromethylsulfonyl)-1 H-imidazole. […] [E. W. Pelikan, The Pharmacologist, 1, 73 (1959). ]
Male CF1 mice obtained from Charles River Breeding Laboratories, fasted for 16-22 hours and weighing 18-22 g at the time of testing are used throughout. All mice are dosed sequentially by the oral route with suspensions of 4,5-bis(4-methoxyphenyl)-2-(trifluoromethylsulfonyl)-1H-imidazole and/or of nalbuphine hydrochloride. A dosing volume of 10 ml/kg is used for each sequential solution or suspension. […] All doses are coded and the test is performed under a code not known to the observer.
A stock suspension of 4,5-bis(4-methoxyphenyl)-2-trifluoromethylsulfonyl)-1H-imidazole is prepared by mixing 8.0 mg 4,5-bis(4-methoxyphenyl)-2-(trifluoromethylsulfonyl)-1H-imidazole with 80 ml of an aqueous vehicle containing 2% by volume of Tween 80®, a pharmacological dispersant manufactured by Fisher Scientific Company and containing 100% polysorbate 80, and 1% by weight of Methocel® MC powder, a suspending agent manufactured by DOW Chemical Company and containing 100% methylcellulose, in distilled water. The mixture is sonicated at 150 watts for 1-2 minutes with an ultrasound system, then shaken for two hours at 280 oscillations/minute with 15-20 gm of glass beads. The resultant suspension contains 0.1 mg/ml of 4,5-bis(4-methoxyphenyl)-2-(trifluoromethylsulfonyl)-1H-imidazole; all dosing suspensions are prepared by dilution of the stock suspension with the Methocel®/Tween 80® vehicle; the vehicle control is Methocel®/Tween 80®. All suspensions are prepared fresh daily.
Stock solutions of nalbuphine HCl are prepared by dissolving dry nalbuphine hydrochloride powder with distilled water. All dosing solutions are prepared by dilution of the stock solution with distilled water; the vehicle control is distilled water.
As indicated above, the standard procedure based upon the prevention of phenyl-p-benzoquinone induced writhing in mice is utilized to detect and quantify the analgetic activity of compositions containing nalbuphine and 4,5-bis(4-methoxyphenyl)-2-(trifluoromethylsulfonyl)-1H-imidazole.
Mice, intubated with various doses of nalbuphine hydrochloride, 4,5-bis(4-methoxyphenyl)-2-(trifluoromethylsulfonyl)-1H-imidazole, combined doses of nalbuphine hydrochloride and 4,5-bis(4-methoxyphenyl)-2-(trifluoromethylsulfonyl)-1H-imidazole, or vehicle, are injected intraperitoneally with a challenge dose of phenyl-p-benzoquinone 5 minutes prior to the designated observation period. The phenyl-p-benzoquinone is prepared as an 0.1 mg/ml solution in 5% by volume of ethanol in water; the writhing dose is 1.25 mg/kg injected in a volume of 0.25 ml/20 g. For scoring purposes a "writhe" is indicated by whole body stretching or contraction of the abdomen; mice are observed 10 minutes for the presence or absence of writhing beginning 5 minutes after receiving the phenyl-p-benzoquinone dose. Each mouse is used only once, then discarded. […] This dosage as described herein is referred to as the ED50. All ED50 values and their 95% confidence limits are determined numerically by the computer-assisted methods of Finney. [D. J. Finney, "Probit Analysis," Third Edition, Cambridge University Press, Cambridge, England, 1971].

**Q.** Which results are given for `COc1ccc(-c2nc(S(=O)(=O)C(F)(F)F)[nH]c2-c2ccc(OC)cc2)cc1` [CII, 4,5-bis(4-methoxyphenyl)-2-(trifluoromethylsulfonyl)-1H-imidazole]?
**A.** % MICE BLOCKED (40 min, CII 0.063 mg/kg): 10.0%; % MICE BLOCKED (40 min, CII 0.125 mg/kg): 46.7%; % MICE BLOCKED (40 min, CII 0.250 mg/kg): 73.3%; % MICE BLOCKED (40 min, CII 0.500 mg/kg): 93.3%; ED50 at 40 min, CII (40 min post oral dosing, CII part of the ED50 dose, N = 30 mice/dose): 0.161 mg/kg; % MICE BLOCKED (80 min, CII 0.03 mg/kg): 13.3%; % MICE BLOCKED (80 min, CII 0.06 mg/kg): 26.7%; % MICE BLOCKED (80 min, CII 0.12 mg/kg): 56.7%; % MICE BLOCKED (80 min, CII 0.24 mg/kg): 63.3%; ED50 at 80 min, CII (80 min post oral dosing, CII part of the ED50 dose, N = 30 mice/dose): 0.135 mg/kg

**Q.** With `Oc1ccc2c3c1O[C@H]1[C@@H](O)CC[C@@]4(O)[C@@H](C2)N(CC2CCC2)CC[C@]314` [Nalbuphine, (-)-17-(cyclobutylmethyl)-4,5α-epoxymorphinan-3,6α,14-triol] as the molecule, how does the “% MICE BLOCKED” value (40 min, nalbuphine HCl 5.85 mg/kg) read?
**A.** The value was 16.7%.

**Q.** What about the “% MICE BLOCKED” value (40 min, nalbuphine HCl 11.7 mg/kg) of the same molecule?
**A.** The value was 30.0%.

**Q.** What about the “% MICE BLOCKED” value (40 min, nalbuphine HCl 23.4 mg/kg) of the same molecule?
**A.** Its value is 43.3%.

**Q.** What about the “% MICE BLOCKED” value (40 min, nalbuphine HCl 46.8 mg/kg) of the same molecule?
**A.** The value was 70.0%.

**Q.** And the “% MICE BLOCKED” value (40 min, nalbuphine HCl 93.6 mg/kg)?
**A.** Its value is 83.3%.

**Q.** What about the “ED50 at 40 min, nalbuphine HCl” value (40 min post oral dosing, nalbuphine HCl part of the ED50 dose, N = 30 mice/dose) of the same molecule?
**A.** The value was 28.9 mg/kg.

**Q.** And the “% MICE BLOCKED” value (80 min, nalbuphine HCl 24.5 mg/kg)?
**A.** The value was 6.7%.

**Q.** And the “% MICE BLOCKED” value (80 min, nalbuphine HCl 49 mg/kg)?
**A.** The value was 26.7%.

**Q.** And the “% MICE BLOCKED” value (80 min, nalbuphine HCl 98 mg/kg)?
**A.** The value was 40.0%.

**Q.** What about the “% MICE BLOCKED” value (80 min, nalbuphine HCl 196 mg/kg) of the same molecule?
**A.** The value was 56.7%.

**Q.** What about the “% MICE BLOCKED” value (80 min, nalbuphine HCl 392 mg/kg) of the same molecule?
**A.** The value was 83.3%.

**Q.** What about the “ED50 at 80 min, nalbuphine HCl” value (80 min post oral dosing, nalbuphine HCl part of the ED50 dose, N = 30 mice/dose) of the same molecule?
**A.** Its value is 141 mg/kg.
